Assay results reported in patent US11564923B2, “Compounds and pharmaceutical compositions thereof for the treatment of inflammatory disorders” (Galapagos NV, priority 2017, dated 2023).

How the values were obtained:
Type in all cases: biochemical
[1] = biological target: T1, Recombinant human JAK1 (catalytic domain, amino acids 866-1154) (Homo sapiens, UniProt P23458); test: JAK1 inhibition assay; conditions: read-out: JAK1 potency IC50
T1 construct: catalytic domain, amino acids 866-1154
Description: (§1) After 60 min at room temperature, reactions are stopped by adding 20 μL/well of detection mixture (1× detection buffer (Perkin Elmer, catalog number CR97-100), 0.5 nM Europium-anti-phosphotyrosine (PT66) (Perkin Elmer, catalog number AD0068/AD0069), 10 mM EDTA). […] Kinase activity is calculated by subtracting the ratio obtained in the presence of a positive control inhibitor (1 μM staurosporine) from the ratio obtained in the presence of vehicle. The ability of a test compound to inhibit this activity (or percentage inhibition) is determined as:
(§2) [formula] wherein Fluorescent ratio test compound=ratio RFU665/RFU615*1000 determined for sample with test compound present Fluorescent ratio control=ratio RFU665/RFU615*1000 determined for sample with positive control inhibitor Fluorescent ratio vehicle=ratio RFU665/RFU615*1000 determined in the presence of vehicle
(§3) Dose dilution series were prepared for the compounds enabling the testing of dose-response effects in the JAK1 assay and the calculation of the IC50 for the compound. Each compound is routinely tested at concentration of 20 μM followed by a 1/5 serial dilution, 10 points in a final concentration of 1% DMSO. […] The data are expressed as the average IC50 from the assays.

[2] = biological target: T2, Recombinant human JAK2 (catalytic domain, amino acids 808-1132) (Homo sapiens, UniProt O60674); test: JAK2 inhibition assay; conditions: read-out: JAK2 potency IC50; note: 0.7 µM ATP
T2 construct: catalytic domain, amino acids 808-1132
T2 sequence (O60674 808-1132): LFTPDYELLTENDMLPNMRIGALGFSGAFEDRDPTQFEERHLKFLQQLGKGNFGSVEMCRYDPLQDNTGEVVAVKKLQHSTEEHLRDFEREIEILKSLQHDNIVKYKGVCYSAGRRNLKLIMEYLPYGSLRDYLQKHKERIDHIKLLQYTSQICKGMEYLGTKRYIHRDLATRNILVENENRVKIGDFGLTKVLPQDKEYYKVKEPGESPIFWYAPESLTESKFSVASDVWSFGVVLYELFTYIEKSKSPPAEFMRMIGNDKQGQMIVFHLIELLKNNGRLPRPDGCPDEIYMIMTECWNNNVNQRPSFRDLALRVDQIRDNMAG
Description: as §1, with “CR97-100) with” for “CR97-100),”, “AD0068/AD0069) and” for “AD0068/AD0069),”
as §2
as §3, with “are” for “were”, “compound” for “the compounds”, “JAK2” for “JAK1”

[3] = biological target: Recombinant human JAK3 catalytic domain (amino acids 781-1124) (Homo sapiens, UniProt P52333); test: JAK3 inhibition assay
Recombinant human JAK3 catalytic domain (amino acids 781-1124), sequence (P52333 781-1124): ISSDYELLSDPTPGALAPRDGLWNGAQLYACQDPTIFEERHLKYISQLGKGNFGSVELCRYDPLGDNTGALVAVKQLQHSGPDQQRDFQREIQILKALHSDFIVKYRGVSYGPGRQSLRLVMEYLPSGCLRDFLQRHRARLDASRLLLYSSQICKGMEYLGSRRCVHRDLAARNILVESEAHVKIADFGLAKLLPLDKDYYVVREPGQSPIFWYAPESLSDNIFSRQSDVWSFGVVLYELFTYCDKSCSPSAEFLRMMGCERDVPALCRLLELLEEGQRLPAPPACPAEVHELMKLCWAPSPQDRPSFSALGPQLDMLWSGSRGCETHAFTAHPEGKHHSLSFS
Description: After 45 min at 30° C., reactions are stopped by adding 25 μL/well of 150 mM phosphoric acid. […] Plates are washed 6 times with 300 μL per well of a 75 mM phosphoric acid solution and the bottom of the plates is sealed. […] Kinase activity is calculated by subtracting counts per min (cpm) obtained in the presence of a positive control inhibitor (10 μM staurosporine) from cpm obtained in the presence of vehicle. The ability of a test compound to inhibit this activity (or percentage inhibition) is determined as: […]
cpm test compound=cpm determined for sample with test compound present cpm control=cpm determined for sample with positive control inhibitor cpm vehicle=cpm determined in the presence of vehicle
Dose dilution series were prepared for the compounds enabling the testing of dose-response effects in the JAK3 assay and the calculation of the IC50 for each compound. Each compound is routinely tested at concentration of 20 μM followed by a 1/5 serial dilution, 10 points in a final concentration of 1% DMSO.

[4] = biological target: T3, Recombinant human TYK2 catalytic domain (amino acids 871-1187) (Homo sapiens, UniProt P29597); test: TYK2 radioactive assay polyGT substrate; note: 0.1 µM ATP
T3 construct: catalytic domain (amino acids 871-1187)
T3 sequence (P29597 871-1187): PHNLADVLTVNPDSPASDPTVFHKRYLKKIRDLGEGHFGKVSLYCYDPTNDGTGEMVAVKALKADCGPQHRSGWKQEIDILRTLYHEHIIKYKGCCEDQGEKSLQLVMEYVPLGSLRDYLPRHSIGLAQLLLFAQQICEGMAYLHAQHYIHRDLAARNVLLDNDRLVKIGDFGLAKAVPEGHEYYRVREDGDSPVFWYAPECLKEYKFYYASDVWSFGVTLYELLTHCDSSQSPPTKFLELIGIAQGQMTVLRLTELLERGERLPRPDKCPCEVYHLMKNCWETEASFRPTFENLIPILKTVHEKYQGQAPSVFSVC
How it was run: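 Reaction at 30° C. for 120 min, ended with 150 mM phosphoric acid, washed, counted; percent inhibition scaled between vehicle and 10 μM staurosporine cpm.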

T1 sequence (P23458 866-1154): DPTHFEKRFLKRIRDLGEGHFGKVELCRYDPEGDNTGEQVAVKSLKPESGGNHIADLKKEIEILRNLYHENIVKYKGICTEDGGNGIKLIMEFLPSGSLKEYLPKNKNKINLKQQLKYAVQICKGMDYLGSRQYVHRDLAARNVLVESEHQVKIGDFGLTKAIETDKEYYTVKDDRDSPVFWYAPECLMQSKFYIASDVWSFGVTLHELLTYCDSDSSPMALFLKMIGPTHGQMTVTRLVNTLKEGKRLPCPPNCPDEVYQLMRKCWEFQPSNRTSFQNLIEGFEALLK

IC50 [1] | IC50 [2] | IC50 [3] | IC50 [4] | SMILES
52.4 nM | 20.4 nM | 452 nM | 2.3 nM | Cc1cc(C#N)ncc1Oc1cc(Nc2cc(NCC3COCCO3)ncn2)c2ncn(C)c2n1 (centres unmarked) [Compound 35, 5-(7-{6-[([1,4]Dioxan-2-ylmethyl)-amino]-pyrimidin-4-ylamino}-3-methyl-3H-imidazo[4,5-b]pyridin-5-yloxy)-4-methyl-pyridine-2-carbonitrile]
18.5 nM | 5.58 nM | 573 nM | 3.57 nM | Cc1cc(C#N)ncc1Oc1cc(Nc2ccc(C(N(C)C)C(F)(F)F)cn2)c2ncn(C)c2n1 (centres unmarked) [Compound 79]
95.4 nM | 41.2 nM | 561 nM | 12.9 nM | COCCN(C)c1ccc(Nc2cc(Oc3cnc(C#N)cc3C)nc3c2ncn3C)nc1 [Compound 183, 5-[7-[[5-[2-methoxyethyl(methyl)amino]-2-pyridyl]amino]-3-methyl-imidazo[4,5-b]pyridin-5-yl]oxy-4-methyl-pyridine-2-carbonitrile]
217 nM | 39.7 nM | 87.1 nM | 30.7 nM | CC(Nc1cc(Nc2cc(N)ncn2)c2ncn(C)c2n1)C1CCC1 (centres unmarked) [Compound 94, N7-(6-aminopyrimidin-4-yl)-N5-(1-cyclobutylethyl)-3-methyl-imidazo[4,5-b]pyridine-5,7-diamine]
101 nM | 23.4 nM | 1110 nM | 5.49 nM | Cc1cc(C#N)ncc1Oc1cc(Nc2cc(NCCCO)ncn2)c2ncn(C)c2n1 [Compound 34, 5-{7-[6-(3-Hydroxy-propylamino)-pyrimidin-4-ylamino]-3-methyl-3H-imidazo[4,5-b]pyridin-5-yloxy}-4-methyl-pyridine-2-carbonitrile]
23.4 nM | 6.96 nM | 329 nM | 0.95 nM | Cc1cc(C#N)ncc1N(CCCO)c1cc(Nc2cc(N)ncn2)c2ncn(C)c2n1 [Compound 5, 5-[[7-(6-Amino-pyrimidin-4-ylamino)-3-methyl-3H-imidazo[4,5-b]pyridin-5-yl]-(3-hydroxy-propyl)-amino]-4-methyl-pyridine-2-carbonitrile]
111 nM | 51.1 nM | 916 nM | 17.8 nM | Cc1cc(C#N)ncc1Oc1cc(Nc2ccc(C(=O)NCCN(C)C)cn2)c2ncn(C)c2n1 [Compound 99, 6-[[5-[(6-cyano-4-methyl-3-pyridyl)oxy]-3-methyl-imidazo[4,5-b]pyridin-7-yl]amino]-N-(2-dimethylaminoethyl)pyridine-3-carboxamide]
71 nM | 25 nM | 221 nM | 13.4 nM | C[C@H](C1CC1)N(C)c1cc(Nc2cc(N)ncn2)c2ncn(C)c2n1 [Compound 16, N7-(6-aminopyrimidin-4-yl)-N5-[(1R)-1-cyclopropylethyl]-N5,3-dimethyl-imidazo[4,5-b]pyridine-5,7-diamine]
127 nM | 42.3 nM | 660 nM | 6.54 nM | Cc1cc(C#N)ncc1N(CC(C)O)c1cc(Nc2cc(N)ncn2)c2ncn(C)c2n1 (centres unmarked) [Cpd 187, 5-[[7-[(6-aminopyrimidin-4-yl)amino]-3-methyl-imidazo[4,5-b]pyridin-5-yl]-(2-hydroxypropyl)amino]-4-methyl-pyridine-2-carbonitrile]
93.6 nM | 41.4 nM | 871 nM | 17 nM | Cc1cc(C#N)ncc1Oc1cc(Nc2ccc(N(C)C)cn2)c2ncn(C)c2n1 [Compound 185, 5-[7-[[5-(dimethylamino)-2-pyridyl]amino]-3-methyl-imidazo[4,5-b]pyridin-5-yl]oxy-4-methyl-pyridine-2-carbonitrile]
21.8 nM | 6.29 nM | 36.4 nM | 3.08 nM | CC(C)[C@@H](Nc1cc(Nc2ccc(C(=O)N(C)C)cn2)c2ncn(C)c2n1)C(F)(F)F [Compound 97, N,N-dimethyl-6-[[3-methyl-5-[[(1R)-2-methyl-1-(trifluoromethyl)propyl]amino]imidazo[4,5-b]pyridin-7-yl]amino]pyridine-3-carboxamide]
